Assay results reported in PubChem BioAssay AID1963446 (Molecular Pharmacology Branch, DTP, NCI, 2024).
Where “and” joins values, the source holds several entries; their conditions need not be identical. Equal values may be shown once.

Test system: 993429-296-R-J1-PDC complex spheroid growth, percent test/control
Assay: Anticancer human tumor 993429-296-R-J1-PDC patient-derived uterine sarcoma cell line growth inhibition [Asc]
Settings: for viability, T/C: stronger effect = lower value; active means viability on the fitted dose curve at most 10% of control; inactive means the rest
Experimental: Multicellular complex tumor spheroid response to apoptosis pathway targeting inhibitors Alrizomadlin, Pelcitoclax, and Dasminapant in combination with a variety of drugs and investigational agents in selected tumor cell lines
The MDM2 inhibitor alrizomadlin, the Bcl-2/Bcl-xL inhibitor pelcitoclax, and the IAPs inhibitor dasminapant were evaluated both individually and in combination with standard of care and investigational anticancer small molecules within a complex spheroid model of solid tumors. . Complex spheroids include a stromal component modeled by human endothelial cells (HUVEC) and fibroblasts modeled by human mesenchymal stem cells (MSCs). The concentration ranges selected for each drug and investigational agent were based upon clinically achievable concentrations if the clinical Cmax of the agent was known.
Compounds. The drugs and investigational agents: alrizomadlin (APG-115; NSC831270), pelcitoclax (APG-1252; NSC835773), dasminapant (APG-1387;NSC834197), TAK-243 (NSC785004), copanlisib (NSC809693), olaparib (NSC753686), talazoparib (NSC767125), cobimetinib (NSC 768068), eltanexor (KPT-8602, NSC 794443), abemaciclib (NSC 768073), sotorasib (NSC818433), adagrasib (NSC 831453), MRTX-1133 (NSC 836407), Iadademestat (ORY1001, NSC 806812), and RMC-4630 (NSC839698), were obtained from the NCI Developmental Therapeutics Program Chemical Repository. The FDA-approved anticancer drug set is available from the Developmental Therapeutics Program at https://dtp.cancer.gov/organization/dscb/obtaining/available plates.htm. […] The stock solutions were prepared in dimethyl sulfoxide (DMSO, Sigma-Aldrich, St. Louis, MO, cat. D2650) at 800-fold the tested concentration and stored at -70 degrees C prior to their use. All drugs and investigational agents were tested over a range starting from a high concentration at or near the clinical Cmax and decreasing in half-log increments. If the clinical Cmax for an agent had not been determined, the highest concentration tested was 10 microM.
The patient-derived cancer (PDC) cell lines include five colon adenocarcinomas: 186277-243-T-J2-PDC, 616215-338-R-J1-PDC, 439559-082-T-J2-PDC, 463943-066-T-J2-PDC, and 519858-162-T-J1-PDC; three pancreatic carcinomas: 323965-272-R-J2-PDC, 521955-158-R6-J3-PDC, and 521955-158-R2-J5-PDC; two uterine sarcomas: 327498-152-R-J2-PDC and 993429-296-R-J1-PDC; two rhabdomyosarcomas: 755483-174-R-J1-PDC and 772245-204-R-J1-PDC; two soft tissue sarcomas: 126254-015-R-J1-PDC and 494315-158-R-J1-PDC; two malignant fibrous histiocytomas: 317291-083-R-J1-PDC and 596521-263-R-J1-PDC; two breast carcinomas: 171881-019-R-J1-PDC and 885512-296-R-J2-PDC; and one ovarian carcinoma: 6556581-035-R-J-PDC were obtained from the NCI PDMR, (https://pdmr.cancer.gov). The established cell lines HSSY-2 synovial sarcoma (RRID:CVCL 8719), SYO-1 synovial sarcoma (RRID:CVCL_7146), MPNST malignant peripheral neural sheath tumor were obtained from the Sloan Kettering Institute. The following established cell lines were purchased from the American Type Culture Collection (ATCC, Manassas, VA), Sor the received from the NCI repository:, PANC-1 pancreatic carcinoma (CRL-1469, RRID:CVCL_0480), OVCAR-5 ovarian carcinoma (RRID:CVCL_1628), OVCAR-8 ovarian carcinoma (RRID:CVCL_1629), , MCF-7 breast carcinoma (CRL-12584, RRID:CVCL_0031), MDA-MB-231 breast carcinoma (CRL-12532, RRID:CVCL_0062), NCI-H1876 small cell lung carcinoma (CRL-5902, RRID:CVCL_1503), NCI-H510A small cell lung carcinoma (HTB-184, RRID:CVCL_1565), NCI-H1417 (CRL-5869, RRID:CVCL_1469), and NCI-H196 small cell lung carcinoma (CRL-5823, RRID:CVCL_1509). Dr. Peter Houghton (Greehey Children's Cancer Research Institute, University of Texas Health Science Center, San Antonio, TX) provided Rh-18 rhabdomyosarcoma (RRID:CVCL_1659). Pooled donor human umbilical vein endothelial cells (HUVEC, Lonza, cat. CC-2519) and human mesenchymal stem cells (hMSC, Lonza, cat. PT-2501) were purchased from Lonza (Walkersville, MD).
Cell Culture. […]

[1] = curve of first compound, second compound 0.1 µM
[2] = curve of first compound, second compound 0.316 µM
[3] = curve of first compound, second compound 1 µM
[4] = second compound 0.1 µM, first compound 0.0316 µM
[5] = second compound 0.1 µM, first compound 0.1 µM
[6] = second compound 0.316 µM, first compound 0.0316 µM
[7] = second compound 0.316 µM, first compound 0.1 µM
[8] = second compound 1 µM, first compound 0.0316 µM
[9] = second compound 1 µM, first compound 0.1 µM
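Further: spheroids exposed to compounds for seven days.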

O=C(c1cc(Cc2n[nH]c(=O)c3ccccc23)ccc1F)N1CCN(C(=O)C2CC2)CC1 + Cc1c(S(C)(=O)=O)c(-c2cc(F)cc(N3CCN(c4ccc(NS(=O)(=O)c5ccc(NC(CCN6CCC(C(=O)OCCCP(=O)(O)O)CC6)CSc6ccccc6)c(S(=O)(=O)C(F)(F)F)c5)cc4)CC3)c2)c(-c2ccc(Cl)cc2)n1C(C)C
active: viability, T/C (second compound 0.316 µM, first compound 10 µM) 8.15% | viability, T/C (second compound 1 µM, first compound 10 µM) 5.17% | viability, T/C (second compound 3.16 µM, first compound 10 µM) 4.24% | viability, T/C (second compound 10 µM, first compound 10 µM) 1.63%
1480 nM: IC50 (curve of first compound, second compound 10 µM)
944 nM: IC50 [1]
1110 nM: IC50 [2]
< 31.6 nM: IC50 (curve of first compound, second compound 3.16 µM)
inactive: viability, T/C [4] 89.2% | viability, T/C [5] 53.2% | viability, T/C (second compound 0.1 µM, first compound 0.316 µM) 56.9% | viability, T/C (second compound 0.1 µM, first compound 1 µM) 59.6% | viability, T/C (second compound 0.1 µM, first compound 3.16 µM) 37.8% | viability, T/C (second compound 0.1 µM, first compound 10 µM) 9.27% | viability, T/C [6] 55.8% | viability, T/C [7] 51.1% | viability, T/C (second compound 0.316 µM, first compound 0.316 µM) 69.8% | viability, T/C (second compound 0.316 µM, first compound 1 µM) 49.3% | viability, T/C (second compound 0.316 µM, first compound 3.16 µM) 29.1% | viability, T/C [8] 51.5% | viability, T/C [9] 55.8% | viability, T/C (second compound 1 µM, first compound 0.316 µM) 57.2% | viability, T/C (second compound 1 µM, first compound 1 µM) 48.2% | viability, T/C (second compound 1 µM, first compound 3.16 µM) 20.5% | viability, T/C (second compound 3.16 µM, first compound 0.0316 µM) 42% | viability, T/C (second compound 3.16 µM, first compound 0.1 µM) 39% | viability, T/C (second compound 3.16 µM, first compound 0.316 µM) 44.3% | viability, T/C (second compound 3.16 µM, first compound 1 µM) 32.6% | viability, T/C (second compound 3.16 µM, first compound 3.16 µM) 19.3% | viability, T/C (second compound 10 µM, first compound 0.0316 µM) 86.9% | viability, T/C (second compound 10 µM, first compound 0.1 µM) 85.8% | viability, T/C (second compound 10 µM, first compound 0.316 µM) 59.9% | viability, T/C (second compound 10 µM, first compound 1 µM) 70% | viability, T/C (second compound 10 µM, first compound 3.16 µM) 13.5%
773 nM: IC50 [3]

Cn1ncnc1[C@H]1c2n[nH]c(=O)c3cc(F)cc(c23)N[C@@H]1c1ccc(F)cc1
52.4 nM and > 100 nM and 58.6 nM: IC50 (curve of compound)
inactive: viability, T/C (compound 0.000316 µM) 92.8% and 98.9% and 94.3% | viability, T/C (compound 0.001 µM) 93.2% and 97.5% and 95.5% | viability, T/C (compound 0.00316 µM) 83.8% and 99.4% and 81.2% | viability, T/C (compound 0.01 µM) 74.3% and 92% and 84.6% | viability, T/C (compound 0.0316 µM) 62.5% and 70.2% and 57.7% | viability, T/C (compound 0.1 µM) 35.8% and 69.9% and 42%

C=CC(=O)N1CCN(c2nc(=O)n(-c3c(C)ccnc3C(C)C)c3nc(-c4c(O)cccc4F)c(F)cc23)C(C)C1 (stereo unspecified)
> 10000 nM: IC50 (curve of compound)
inactive: viability, T/C (compound 0.0316 µM) 90.9% and 96.8% and 96.9% | viability, T/C (compound 0.1 µM) 104% and 92.1% and 93.1% | viability, T/C (compound 0.316 µM) 104% and 92.4% and 105% | viability, T/C (compound 1 µM) 102% and 106% and 110% | viability, T/C (compound 3.16 µM) 64.9% and 109% and 115% | viability, T/C (compound 10 µM) 72.8% and 77% and 94%

NC1CCC(NC2CC2c2ccccc2)CC1 (stereo unspecified) + CNC(C)C(=O)NC1CN(S(=O)(=O)c2cccc(S(=O)(=O)N3CCC4CCC(C(=O)NC(c5ccccc5)c5ccccc5)N4C(=O)C(NC(=O)C(C)NC)C3)c2)CCC2CCC(C(=O)NC(c3ccccc3)c3ccccc3)N2C1=O
inactive: viability, T/C (second compound 0.01 µM, first compound 0.000316 µM) 63.9% | viability, T/C (second compound 0.01 µM, first compound 0.001 µM) 62.7% | viability, T/C (second compound 0.01 µM, first compound 0.00316 µM) 57.3% | viability, T/C (second compound 0.01 µM, first compound 0.01 µM) 63.6% | viability, T/C (second compound 0.01 µM, first compound 0.0316 µM) 57.8% | viability, T/C (second compound 0.01 µM, first compound 0.1 µM) 63.4% | viability, T/C (second compound 0.0316 µM, first compound 0.000316 µM) 53.3% | viability, T/C (second compound 0.0316 µM, first compound 0.001 µM) 56.3% | viability, T/C (second compound 0.0316 µM, first compound 0.00316 µM) 48.5% | viability, T/C (second compound 0.0316 µM, first compound 0.01 µM) 46.5% | viability, T/C (second compound 0.0316 µM, first compound 0.0316 µM) 57.7% | viability, T/C (second compound 0.0316 µM, first compound 0.1 µM) 57.9% | viability, T/C (second compound 0.1 µM, first compound 0.000316 µM) 53.1% | viability, T/C (second compound 0.1 µM, first compound 0.001 µM) 53.5% | viability, T/C (second compound 0.1 µM, first compound 0.00316 µM) 58.6% | viability, T/C (second compound 0.1 µM, first compound 0.01 µM) 54.9% | viability, T/C [4] 58.3% | viability, T/C [5] 56% | viability, T/C (second compound 0.316 µM, first compound 0.000316 µM) 59.7% | viability, T/C (second compound 0.316 µM, first compound 0.001 µM) 51.5% | viability, T/C (second compound 0.316 µM, first compound 0.00316 µM) 48.1% | viability, T/C (second compound 0.316 µM, first compound 0.01 µM) 50.2% | viability, T/C [6] 53.2% | viability, T/C [7] 49.8% | viability, T/C (second compound 1 µM, first compound 0.000316 µM) 45.9% | viability, T/C (second compound 1 µM, first compound 0.001 µM) 41.7% | viability, T/C (second compound 1 µM, first compound 0.00316 µM) 39.7% | viability, T/C (second compound 1 µM, first compound 0.01 µM) 41.1% | viability, T/C [8] 47.9% | viability, T/C [9] 28.1%
> 100 nM: IC50 (curve of first compound, second compound 0.01 µM) | IC50 (curve of first compound, second compound 0.0316 µM) | IC50 [1] | IC50 [2]
< 0.316 nM: IC50 [3]

O=C(c1cc(Cc2n[nH]c(=O)c3ccccc23)ccc1F)N1CCN(C(=O)C2CC2)CC1
inactive: viability, T/C (compound 0.0316 µM) 83.4% and 99.6% and 106% | viability, T/C (compound 0.1 µM) 84.4% and 88.2% and 103% | viability, T/C (compound 0.316 µM) 90.3% and 89.3% and 93% | viability, T/C (compound 1 µM) 72.8% and 82.6% and 105% | viability, T/C (compound 3.16 µM) 67.7% and 68.7% and 83.8% | viability, T/C (compound 10 µM) 25.3% and 43% and 44.8%
4950 nM and 7380 nM and 8570 nM: IC50 (curve of compound)
